Square brackets hold non-standard residues; d marks the D form. Peptide text beside a SMILES is read from it. * marks the point of attachment. dPhe(4-CH2NH2) = NCc1ccc(C[C@@H](N)C(=O)O)cc1; dOrn = NCCC[C@@H](N)C(=O)O; Orn = NCCC[C@H](N)C(=O)O; Ac5c = NC1(C(=O)O)CCCC1; PhAc = O=C(Cc1ccccc1)*; Ac3c = NC1(C(=O)O)CC1; Aib = CC(C)(N)C(=O)O
Key:
[1] = test system: PDL-1 and/or PDL-2 signaling; assay: Luciferase assay of dipeptides, Table 1; format: cell-based
PD-1 = assay: Binding affinity (KD) of dipeptides, Table 1

Structure (SMILES) | EC50 [1] [µM] | EC50 (μM) Luciferase [1] | KD (PD-1)
CC(C)(NC(=O)[C@@H](CCCN)NC(=O)Cc1ccccc1)C(N)=O [Compound 1, (R)-5-amino-N-(1-amino-2-methyl-1-oxopropan-2-yl)-2-(2-phenylacetamido)pentanamide] (PhAc-[dOrn]-[Aib]-NH2) | 18 | – | –
CC(C)(NC(=O)[C@@H](CCCN)NC(=O)Cc1ccc(C(F)(F)F)cc1)C(N)=O [Compound 3] | 0.01 | – | –
CC(C)(NC(=O)[C@@H](CCCN)NC(=O)Cc1ccc(F)cc1)C(N)=O [Compound 4] | 0.47 | – | –
CC(C)(NC(=O)[C@@H](CCCN)NC(=O)Cc1ccc(OC(F)(F)F)cc1)C(N)=O [Compound 6] | 0.09 | – | –
CC(C)(NC(=O)[C@@H](CCCCN)NC(=O)Cc1ccccc1)C(N)=O [Compound 8] (PhAc-[dK]-[Aib]-NH2) | 1.37 | – | –
CC(C)(NC(=O)[C@@H](CCCN)NC(=O)Cc1ccccc1F)C(N)=O [Compound 9] | 0.05 | – | –
Cc1ccc(CC(=O)N[C@H](CCCN)C(=O)NC(C)(C)C(N)=O)cc1 [Compound 10] | – | Inactive | –
Cn1cc(C(=O)N[C@H](CCCN)C(=O)NC(C)(C)C(N)=O)c2ccccc21 [Compound 13] | 1.28 | – | –
CC(C)(NC(=O)[C@@H](Cc1ccc(CN)cc1)NC(=O)Cc1ccccc1)C(N)=O [Compound 23] (PhAc-[dPhe(4-CH2NH2)]-[Aib]-NH2) | 17.7 | – | No Binding
CC(C)(NC(=O)[C@@H](CCCN)NC(=O)C1(c2ccc(F)cc2)CC1)C(N)=O [Compound 25] | 5.03 | – | –
CC(C)(NC(=O)[C@@H](CCCN)NC(=O)Cc1ccc(F)cc1Cl)C(N)=O [Compound 27] | 10.2 | – | –
CC(C)(NC(=O)[C@@H](CCCN)NC(=O)Cc1ccc(F)cc1F)C(N)=O [Compound 29] | 2.58 | – | –
CC(C)(NC(=O)[C@@H](CCCN)NC(=O)Cc1cc(F)cc(F)c1)C(N)=O [Compound 30] | 2.1 | – | –
CC(C)(NC(=O)[C@@H](CCCN)NC(=O)Cc1c(F)cccc1F)C(N)=O [Compound 31] | 0.596 | – | –
CC(C)(NC(=O)[C@@H](CCCN)NC(=O)Cc1cc(F)c(F)c(F)c1)C(N)=O [Compound 32] | 28.3 | – | No Binding
CC(C)(NC(=O)[C@@H](CCCN)NC(=O)Cc1c(F)cc(F)cc1F)C(N)=O [Compound 33] | 0.06 | – | –
Cc1c[nH]c(=O)c(NC(=O)[C@@H](CCCN)NC(=O)Cc2ccc(F)cc2)c1 [Compound 35] | 0.59 | – | –
Cc1c[nH]c(=O)c(NC(=O)[C@@H](CCCN)NC(=O)Cc2ccccc2)c1 [Compound 36] | 1.69 | – | No Binding
CC(C)(NC(=O)[C@@H](CCCN)NC(=O)Cc1nc2ccccc2o1)C(N)=O [Compound 38] | 19.2 | – | –
CC(C)(NC(=O)[C@@H](CCCN)NC(=O)Cc1nc2ccccc2s1)C(N)=O [Compound 40] | 0.07 | – | –
CC(C)(NC(=O)[C@H](CCCN)NC(=O)Cc1ccc(C(F)(F)F)cc1)C(N)=O [Compound 42] | 12.1 | – | –

Second part, the molecule after the results:

EC50 [1] [µM] | EC50 (μM) Luciferase [1] | KD (PD-1) | Structure (SMILES)
7.9 | – | – | CC(C)(NC(=O)[C@H](CCCN)NC(=O)Cc1ccccc1)C(N)=O [Compound 2] (PhAc-[Orn]-[Aib]-NH2)
0.32 | – | – | COc1ccc(CC(=O)N[C@H](CCCN)C(=O)NC(C)(C)C(N)=O)cc1 [Compound 5]
0.28 | – | – | NCCC[C@@H](NC(=O)Cc1ccccc1)C(=O)NC1(C(N)=O)CCCC1 [Compound 7] (PhAc-[dOrn]-[Ac5c]-NH2)
1.28 | – | – | CC(C)(NC(=O)[C@@H](CCCN)NC(=O)Cc1cccc(F)c1)C(N)=O [Compound 11]
– | Inactive | – | CC(C)(NC(=O)[C@@H](CCCN)NC(=O)C(C)(C)c1ccccc1)C(N)=O [Compound 12]
0.11 | – | – | NCCC[C@@H](NC(=O)Cc1ccccc1)C(=O)NC1(C(N)=O)CC1 [Compound 14] (PhAc-[dOrn]-[Ac3c]-NH2)
3.32 | – | – | NCCC[C@@H](NC(=O)Cc1ccc(F)cc1)C(=O)NC1(C(N)=O)CC1 [Compound 15]
10.3 | – | No Binding | CC(C)(NC(=O)[C@@H](CCCN)NC(=O)Cc1ccc(Cl)cc1)C(N)=O [Compound 17]
2.05 | – | – | CC(C)(NC(=O)[C@@H](CCCN)NC(=O)C1(c2ccccc2)CC1)C(N)=O [Compound 22]
0.714 | – | – | CC(C)(NC(=O)[C@@H](Cc1ccc(CN)cc1)NC(=O)Cc1ccc(F)cc1)C(N)=O [Compound 24]
3.79 | – | – | CC(C)(NC(=O)[C@@H](CCCN)NC(=O)C(C)(C)c1ccc(F)cc1)C(N)=O [Compound 26]
2 | – | – | CC(C)(NC(=O)[C@@H](CCCN)NC(=O)Cc1ccc(F)c(F)c1)C(N)=O [Compound 28]
3.48 | – | – | CC(C)(NC(=O)[C@@H](CCCN)NC(=O)Cc1ccncc1)C(N)=O [Compound 34]
23.8 | – | – | CN(C)CCC[C@@H](NC(=O)Cc1ccc(F)cc1)C(=O)NC(C)(C)C(N)=O [Compound 37]
10.3 | – | – | CCCC[C@@H](NC(=O)Cc1ccc(F)cc1)C(=O)NC(C)(C)C(N)=O [Compound 39]

— US12098216B2, “Modulators of programmed death-ligand-1 and/or programmed death-ligand-2” (Southern Research Institute, priority 2020, dated 2024)
